From US20240209022A1, “NOVEL PEPTIDE HAVING ANTI-INFLAMMATORY AND TISSUE REGENERATIVE ACTIONS” (KOREA RESEARCH INSTITUTE OF BIOSCIENCE AND BIOTECHNOLOGY, priority 2020, published 2024)

Columns and labels:
[1] = system: animal model of muscle atrophy/muscle strength loss due to natural aging (geriatric sarcopenia); assay: Geriatric sarcopenia model (natural aging): muscle strength and muscle mass; assay type: in vivo, C57BL/6 mice; settings: vs PBS buffer group; for grip strength: 11th week of administration, oral 0.2 μg/150 μL; for GC (gastrocnemius) muscle weight / TA (tibialis anterior) muscle weight / soleus muscle weight: after the experiment; for muscle strength (grip strength): oral
Method: The efficacy of the peptides was verified using an animal model of muscle atrophy/muscle strength loss due to natural aging (geriatric sarcopenia). At the time of administration of Amuc_1409, 80 to 83-week old C57BL/6 male mice were used. Amuc_1409 was dissolved in PBS buffer at a concentration of 2.4 μM and then orally administered to the mice by 150 μL per animal at the same time once a day for 32 weeks. To the control group, PBS buffer was orally administered in the same manner. At the 16th week of Amuc_1409 administration, aged mice were allowed to hold the wire net connected to the muscle strength probe of the grip strength meter with all four paws, and then the tail was carefully pulled backward to measure the maximum grip strength at the moment at which the mice held onto the wire net. For muscle weight, after administration, the gastrocnemius (GC), soleus, and tibialis anterior (TA) muscles from both hind paws of the aged mice of each group were carefully separated to avoid damage, and each weight was measured. Muscle weight versus body weight was calculated by correcting with the body weight of the mouse. After the end of the experiment, in order to analyze the size of muscle fibers in each group, TA muscles were fixed in 10% formalin, and frozen section samples (8 μm) were prepared to prepare slides. The prepared slides were washed with PBS buffer solution, permeabilized with 0.5% Triton X-100, blocked, and treated with primary antibody (anti-laminin). After 24 hours, a fluorescent secondary antibody (Alexa Fluor 488 Goat anti-rabbit IgG) was applied, and the slides were finally treated with DAPI for nuclear staining. The immunostained slides were subjected to photographing of muscle tissue using a confocal microscope. Using image analysis software (ImageInside), the distribution of cross-sectional area of muscle fibers was calculated for each size from a minimum of 500 μm^2 or less to 3500 μm^2 or more. Meanwhile, in order to examine the efficacy of Amuc_1409 as well as its fragments, 82- to 83-week-old C57BL/6 male mice were used. PEP001 was dissolved in PBS buffer at a concentration of 2.4 μM and then orally administered to the mice by 150 μL per animal at the same time once a day for 10 weeks. To the control group, PBS buffer was orally administered in the same manner. At the 10th week of PEP001 administration, the maximum grip strength and muscle weight were calculated in the same manner as the measurement in Amuc_1409. At the end of the experiment, a part of the GC muscle excised was homogenized with Trizol to extract RNA. Reverse transcriptase was added to the obtained RNA and reacted to synthesize cDNA, and SYBR Green and primers were added to perform quantitative real-time PCR (RT-qPCR). The gene expression level of insulin-like growth factor (IGF-1) involved in protein synthesis in muscle cells was then quantified. In addition, in order to confirm the efficacy of the novel tetrapeptides and tripeptides PEP006 to PEP013, the improvement efficacy on geriatric sarcopenia was examined using naturally aged 76 to 78-week old female C57BL/6J mice. For an additional 12 weeks, the novel tetrapeptides PEP006, PEP007, PEP008, PEP009, and PEP010 or novel tripeptides PEP011, PEP012, and PEP013 were each dissolved in PBS buffer at a concentration of 0.2 μg/150 μL and then orally administered to the naturally aged mice by 150 μL per mouse at the same time until the end of the test. To the control group, PBS buffer was orally administered in the same manner. For all animals, general symptoms were observed immediately before administration at the start of administration, and grip strength was measured at the 11th week of administration in order to analyze muscle strength attenuation. […]

[2] = system: TPA-induced dermatitis model; assay: TPA-induced dermatitis (ear) model; assay type: in vivo, C57BL/6J mice; settings: vs PBS buffer group; for ear thickness / ear weight / erythema and swelling of the ear (macro photograph): 26 hours after TPA application
Method: As a dermatitis model, one day before sample application, both ears of 8-week-old male C57BL/6J mice were shaved, 2.5 μg of TPA (12-otetrade-canoyl-phorbol-13-acetate) dissolved in 25 μL acetone was applied to the right ear of the mouse to induce skin swelling and inflammation, and the left ear was coated with 25 μL of acetone, which is a TPA solvent, and used as a negative control. From 3 days before TPA application, Amuc_1409 or PEP001 to PEP013 were each dissolved in PBS buffer at a concentration of 6.7 μM, and then injected into the abdominal cavity of mice by 150 μL per animal once a day at the same time. On day 3 (0 days) after administration of the peptide, the peptide was injected intraperitoneally one time 30 minutes before TPA application, and the drug was additionally injected intraperitoneally 3 hours after TPA injection. Into the control group, the same volume of PBS buffer was intraperitoneally injected, and the experiment was terminated 26 hours after TPA application. 26 hours after TPA application, the ear thickness was measured and photographs of both ears for each test group were taken in order to examine the degree of swelling and inflammation relief in the ears. After the test animal was sacrificed, the weight per area of the ear was measured, the ears of mice were fixed in 10% neutral buffered formalin at room temperature for 24 hours or more, and then embedded in paraffin to prepare 5 μm-thick sections, and the sections were stained with hematoxylin and eosin (H&E). The degrees of swelling of the ear and inflammatory cell infiltration were examined by observing the H&E-stained tissue section under an optical microscope.

Row | Molecule | grip strength [1] | GC (gastrocnemius) muscle weight [1] | TA (tibialis anterior) muscle weight [1] | soleus muscle weight [1] | ear thickness [2] | ear weight [2] | erythema and swelling of the ear (macro photograph) [2] | further results
1 | AIS [PEP013] | significantly increased | tended to increase | tended to increase | tended to increase |  |  |  | 
2 | AVSSI (PEP002) |  |  |  |  | significantly decreased | significantly decreased | significantly reduced | 
3 | SGAY (PEP009) | significantly increased | tended to increase | tended to increase | tended to increase |  |  |  | 
4 | KGAY (PEP003) |  |  |  |  | significantly decreased | significantly decreased | significantly reduced | 
5 | GAY [PEP005] |  |  |  |  | significantly decreased | significantly decreased | significantly reduced | 
6 | AQS [PEP011] | significantly increased | tended to increase | tended to increase | tended to increase |  |  |  | 
7 | VGAY (PEP010) | significantly increased | tended to increase | tended to increase | tended to increase |  |  |  | 
8 | AVSSIKGAY (PEP001) |  | significantly increased | increased | significantly increased | significantly decreased | significantly decreased | significantly reduced | muscle strength (grip strength) ([1]; 10th week of administration): significantly increased; IGF-1 gene expression in GC muscle ([1]; 10th week of administration): tended to increase
9 | AGAY (PEP006) | significantly increased | tended to increase | tended to increase | tended to increase |  |  |  | 
10 | RGAY (PEP007) | increased to a significant level | tended to increase | tended to increase | increased to a significant level |  |  |  | 
11 | AGS [PEP012] | significantly increased | tended to increase | tended to increase | tended to increase |  |  |  | 
12 | AVS (AVSSIKGAY) [PEP004] |  |  |  |  | significantly decreased | significantly decreased | significantly reduced | 
13 | IGAY (PEP008) | significantly increased | tended to increase | tended to increase | tended to increase |  |  |  | 
14 | Amuc_1409: SEQ ID NO: 15, functional fragment obtained by eliminating the leader sequence from SEQ ID NO: 14; protein derived from Akkermansia muciniphila (protein, Amuc_1409_fragment, protein derived from Akkermansia muciniphila) IPESSVPAAAVSSIKGAYPNAGPIEWDSEMHGMERIYEAEFRINGFQFDVKIAPDGKIVRIKEEIAASSLPEAVRASVLKRYPGCRIKEAEKITEGELVRYKVEVADSRDDYDVLIAPDGNILHVDR |  | increased | increased | significantly increased | tended to decrease | significantly decreased | reduced overall | ear tissue swelling and inflammatory cell infiltration (H&E) [2]: significantly reduced; muscle strength (grip strength) ([1]; 16th week of administration): significantly increased; muscle fibers with a size of 2,000 μm^2 or more in the TA muscle ([1]; laminin immunostaining): significantly increased; number of muscle fibers with a cross-sectional size of 500 μm^2 or less in the TA muscle ([1]; laminin immunostaining): decreased; average size of all muscle fibers [1]: significantly increased
